Patent US20220274947A1, “NOVEL HETEROARYL-TRIAZOLE COMPOUNDS AS PESTICIDES” (Bayer Aktiengesellschaft, priority 2019, published 2022)

Experiments:
Format in all cases: in vivo
Ctenocephalides felis [1] = assay: Ctenocephalides felis in-vitro contact test, adult cat flea (CTECFE Cont); settings: application rate 5 μg/cm^2 (=500 g/ha), adult cat fleas, after 48 hours, read-out: activity (efficacy: 100% means all fleas are dead or moribund)
How it was run: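 Efficacy, as percent of fleas dead or moribund, was scored 48 h after adults (5-10 per tube) were placed in glass tubes whose walls carried dried compound at 5 μg/cm^2 (900 ppm solution). Moribund meant failing to climb away from a 45-50° C. hot plate within 5 min.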

Diabrotica balteata = Diabrotica balteata spray test; settings: 168 h, wheat seeds, larvae, after 7 days, read-out: activity (efficacy: 100% means all seedlings have grown up like in the untreated, uninfected control); for pest or weed control at 32 µg/disc, 100 g/ha: application rate 100 g/ha (=32 μg/well); for pest or weed control at 160 µg/disc, 500 g/ha: application rate 500 g/ha (=160 μg/well)
How it was run: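 Efficacy (%) was scored 7 days after spraying, with 100% meaning growth like the untreated, uninfected control and 0% meaning no seedling grew. Spray solutions of compound in acetone/DMF with emulsifier-containing water went onto 1-day-germinated wheat seeds, and each unit was then infested with 10-20 banded cucumber beetle larvae.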

Spodoptera frugiperda = Spodoptera frugiperda spray test; settings: in Zea mays, 168 h, read-out: activity (mortality)
How it was run: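 Percent kill of fall armyworm caterpillars was assessed 7 days after infesting dried, treated maize leaf sections. Treatment was a spray of compound in acetone/dimethylformamide, diluted with water containing emulsifier at 1000 ppm.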

Rhipicephalus microplus [2] = assay: Rhipicephalus (Boophilus) microplus injection test (BOOPMI Inj); settings: 168 h, injection into adult engorged female ticks, egg deposition after 7 days, read-out: activity (efficacy: 100% means all eggs are infertile); for pest or weed control at 0.004 mg: application rate 4 μg/tick; for pest or weed control at 0.02 mg: application rate 20 μg/tick
How it was run: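 Compound in DMSO, 1 μL, injected abdominally into five adult engorged females, which were then held in a climate chamber. Read-out is egg fertility, scored from deposition at 7 days, with unclear eggs followed to hatching (~42 days); 0% means all eggs fertile, 100% all infertile.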

Rhipicephalus microplus [3] = assay: Rhipicephalus (Boophilus) microplus in-vitro contact test, larval cattle tick, strain Parkhurst (BOOPMI Cont); settings: application rate 5 μg/cm^2 (=500 g/ha), tick larvae, after 48 hours, read-out: activity (efficacy: 100% means all larvae are dead or moribund)
How it was run: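 After 48 h at 27° C. and 85% humidity, percent dead or moribund larvae was scored from negative geotactic behaviour. Larvae (20-50, Parkhurst strain, synthetic pyrethroid-resistant) were exposed in tubes coated with compound from acetone, 900 ppm corresponding to 5 μg/cm^2.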

Ctenocephalides felis [4] = assay: Ctenocephalides felis oral test (CTECFE Oral); settings: 48 h, read-out: activity (mortality)
How it was run: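 Percent mortality was recorded 2 days after roughly 20 adult Ctenocephalides felis fed on treated cattle blood. The blood was warmed to 37 °C beneath a parafilm membrane, with the fleas kept at room temperature. Compound was dissolved in DMSO and diluted into the blood to test concentration.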

| Compound | pest or weed control at 5 µg/cm2 (Ctenocephalides felis [1]) [%] | pest or weed control at 32 µg/disc, 100 g/ha (Diabrotica balteata) [%] | pest or weed control at 160 µg/disc, 500 g/ha (Diabrotica balteata) [%] | mortality at 100 g/ha (Spodoptera frugiperda) [%] | mortality at 500 g/ha (Spodoptera frugiperda) [%] | pest or weed control at 0.004 mg (Rhipicephalus microplus [2]) [%] | pest or weed control at 0.02 mg (Rhipicephalus microplus [2]) [%] | pest or weed control at 5 µg/cm2 (Rhipicephalus microplus [3]) [%] | mortality at 100 ppm (Ctenocephalides felis [4]) [%] |
| --- | --- | --- | --- | --- | --- | --- | --- | --- | --- |
| CCc1nc([C@H](C)NC(=O)c2cc(C(F)(F)F)cc(C(F)(F)F)c2)n(-c2ccc(C#N)cn2)n1 [I-1] | 90 | 100 | 100 | 100 | 100 | 100 | 100 | 100 | 90 |
| CCc1nc([C@H](C)NC(=O)c2cc(Cl)cc(Cl)c2)n(-c2ccc(C#N)cn2)n1 [I-2] | 100 | 100 | 100 | 100 | 100 | 100 | 100 | 100 | 90 |
| CC(C)c1nc([C@H](C)NC(=O)c2cncc(C(F)(F)F)c2)n(-c2ccc(C#N)cn2)n1 [I-30] | 80 | 100 | – | 100 | – | 100 | 100 | 100 | 100 |
| C[C@H](NC(=O)c1cccc(Cl)n1)c1ncnn1-c1ccc(C#N)cn1 [II-9] | – | 100 | 100 | 83 | 100 | – | 100 | 80 | 90 |
| C[C@H](NC(=O)c1cc(Cl)cc(SC(F)F)c1)c1ncnn1-c1ccc(C#N)cn1 [II-11] | 100 | 100 | 100 | 100 | 100 | 100 | 100 | 100 | 100 |
| C[C@H](NC(=O)c1cc(Br)cc(Br)c1)c1ncnn1-c1ccc(C#N)cn1 [II-13] | 100 | 100 | – | 100 | 100 | 100 | 100 | 100 | 100 |
| C[C@H](NC(=O)c1cc(Br)cc(OC(F)(F)F)c1)c1ncnn1-c1ccc(C#N)cn1 [II-14] | 100 | 100 | 100 | 100 | 100 | 100 | 100 | 100 | 100 |
| Cc1nc([C@H](C)NC(=O)c2cc(Cl)cc(Cl)c2)n(-c2cc(C#N)ccn2)n1 [II-17] | 100 | 100 | 100 | – | 100 | 100 | 100 | 90 | 100 |
| Cc1nc([C@H](C)NC(=O)c2cc(Cl)cc(C(F)(F)F)c2)n(-c2cc(C#N)ccn2)n1 [II-18] | 100 | 100 | 100 | 100 | 100 | 100 | 100 | 100 | 90 |
| Cc1nc([C@H](C)NC(=O)c2cc(C(F)(F)F)cc(C(F)(F)F)c2)n(-c2cc(C#N)ccn2)n1 [II-19] | 100 | 100 | 100 | 100 | 100 | 100 | 100 | 100 | 100 |
